Structures can show the parent of a compound that is named as a salt. Where two headings read alike, the source gives them in different places.
What was measured:
Assay in all cases: AK assay 384-well format, Prestwick library screening
[1] = system: A. baumannii strain 98-37-09; format: cell-based, Acinetobacter baumannii; details: Acinetobacter baumannii, 983709, 3 h
P. aeruginosa = format: cell-based, Pseudomonas aeruginosa; details: Pseudomonas aeruginosa, 3 h
E. coli = format: cell-based, Escherichia coli; details: Escherichia coli, 3 h
E. faecium = format: cell-based, Enterococcus faecium; details: Enterococcus faecium, 3 h
E. cloacae = format: cell-based, Enterobacter cloacae; details: Enterobacter cloacae, 3 h
K. pneumoniae = format: cell-based, Klebsiella pneumoniae; details: Klebsiella pneumoniae, 3 h
[2] = system: S. aureus strain USA300-0114; format: cell-based, Staphylococcus aureus; details: Staphylococcus aureus, USA300, 3 h
[3] = 50 μM final drug concentration, planktonic, cutoff for positive 3-fold increase, read-out: AK-based Prestwick Library Screening Results, A. baumannii (fold increase in extracellular AK activity)
[4] = 50 μM final drug concentration, planktonic, cutoff for positive 3-fold increase, read-out: AK-based Prestwick Library Screening Results, P. aeruginosa (fold increase in extracellular AK activity)
[5] = 50 μM final drug concentration, planktonic, cutoff for positive 3-fold increase, read-out: AK-based Prestwick Library Screening Results, E. coli (fold increase in extracellular AK activity)
[6] = 50 μM final drug concentration, planktonic, cutoff for positive 3-fold increase, read-out: AK-based Prestwick Library Screening Results, E. faecium (fold increase in extracellular AK activity)
[7] = 50 μM final drug concentration, planktonic, cutoff for positive 3-fold increase, read-out: AK-based Prestwick Library Screening Results, E. cloacae (fold increase in extracellular AK activity)
[8] = 50 μM final drug concentration, planktonic, cutoff for positive 3-fold increase, read-out: AK-based Prestwick Library Screening Results, K. pneumoniae (fold increase in extracellular AK activity)
[9] = 50 μM final drug concentration, planktonic, cutoff for positive 3-fold increase, read-out: AK-based Prestwick Library Screening Results, S. aureus (fold increase in extracellular AK activity)
[10] = 50 μM final drug concentration, cutoff for positive-scoring molecules 3-fold increase, read-out: AK-based Prestwick Library Screening Results, A. baumannii (fold increase in extracellular AK activity)
[11] = 50 μM final drug concentration, cutoff for positive-scoring molecules 3-fold increase, read-out: AK-based Prestwick Library Screening Results, P. aeruginosa (fold increase in extracellular AK activity)
[12] = 50 μM final drug concentration, cutoff for positive-scoring molecules 3-fold increase, read-out: AK-based Prestwick Library Screening Results, E. coli (fold increase in extracellular AK activity)
[13] = 50 μM final drug concentration, cutoff for positive-scoring molecules 3-fold increase, read-out: AK-based Prestwick Library Screening Results, E. faecium (fold increase in extracellular AK activity)
[14] = 50 μM final drug concentration, cutoff for positive-scoring molecules 3-fold increase, read-out: AK-based Prestwick Library Screening Results, E. cloacae (fold increase in extracellular AK activity)
[15] = 50 μM final drug concentration, cutoff for positive-scoring molecules 3-fold increase, read-out: AK-based Prestwick Library Screening Results, K. pneumoniae (fold increase in extracellular AK activity)
[16] = 50 μM final drug concentration, cutoff for positive-scoring molecules 3-fold increase, read-out: AK-based Prestwick Library Screening Results, S. aureus (fold increase in extracellular AK activity)
[17] = planktonic A. baumannii, 50 μM final drug concentration, 384-well, cutoff for positive-scoring molecules 3-fold increase, read-out: AK-based Prestwick Library Screening Results: A. baumannii (increase in extracellular AK activity)
[18] = planktonic P. aeruginosa, 50 μM final drug concentration, 384-well, cutoff for positive-scoring molecules 3-fold increase, read-out: AK-based Prestwick Library Screening Results: P. aeruginosa (increase in extracellular AK activity)
[19] = planktonic E. coli, 50 μM final drug concentration, 384-well, cutoff for positive-scoring molecules 3-fold increase, read-out: AK-based Prestwick Library Screening Results: E. coli (increase in extracellular AK activity)
[20] = planktonic E. faecium, 50 μM final drug concentration, 384-well, cutoff for positive-scoring molecules 3-fold increase, read-out: AK-based Prestwick Library Screening Results: E. faecium (increase in extracellular AK activity)
[21] = planktonic E. cloacae, 50 μM final drug concentration, 384-well, cutoff for positive-scoring molecules 3-fold increase, read-out: AK-based Prestwick Library Screening Results: E. cloacae (increase in extracellular AK activity)
[22] = planktonic K. pneumoniae, 50 μM final drug concentration, 384-well, cutoff for positive-scoring molecules 3-fold increase, read-out: AK-based Prestwick Library Screening Results: K. pneumoniae (increase in extracellular AK activity)
[23] = planktonic S. aureus, 50 μM final drug concentration, 384-well, cutoff for positive-scoring molecules 3-fold increase, read-out: AK-based Prestwick Library Screening Results: S. aureus (increase in extracellular AK activity)

## C=C[C@H]1C[N@@]2CC[C@H]1C[C@@H]2[C@@H](O)c1ccnc2ccccc12 [Cinchonine]
[1]; [3]
  fold induction at 50 µM: 1.1
P. aeruginosa; [4]
  fold induction at 50 µM: 1.1
E. coli; [5]
  fold induction at 50 µM: 1.2
E. faecium; [6]
  fold induction at 50 µM: 1.1
E. cloacae; [7]
  fold induction at 50 µM: 1.5
K. pneumoniae; [8]
  fold induction at 50 µM: 1
[2]; [9]
  fold induction at 50 µM: 1.6

## CCn1nc(C(=O)O)c(=O)c2cc3c(cc21)OCO3 [Cinoxacin]
[1]; [10]
  fold induction at 50 µM: 1.3
P. aeruginosa; [11]
  fold induction at 50 µM: 1.2
E. coli; [12]
  fold induction at 50 µM: 10.3
E. faecium; [13]
  fold induction at 50 µM: 1.1
E. cloacae; [14]
  fold induction at 50 µM: 1.4
K. pneumoniae; [15]
  fold induction at 50 µM: 2.1
[2]; [16]
  fold induction at 50 µM: 1.3

## CC(C)(Oc1ccc(C2CC2(Cl)Cl)cc1)C(=O)O (stereo not shown) [Ciprofibrate]
[1]; planktonic A. baumannii, 50 μM final drug concentration, positive cutoff 3-fold increase, read-out: AK-based Prestwick library screening result, A. baumannii (fold increase in extracellular AK activity)
  fold induction at 50 µM: 0.8
P. aeruginosa; planktonic P. aeruginosa, 50 μM final drug concentration, positive cutoff 3-fold increase, read-out: AK-based Prestwick library screening result, P. aeruginosa (fold increase in extracellular AK activity)
  fold induction at 50 µM: 0.7
E. coli; planktonic E. coli, 50 μM final drug concentration, positive cutoff 3-fold increase, read-out: AK-based Prestwick library screening result, E. coli (fold increase in extracellular AK activity)
  fold induction at 50 µM: 0.8
E. faecium; planktonic E. faecium, 50 μM final drug concentration, positive cutoff 3-fold increase, read-out: AK-based Prestwick library screening result, E. faecium (fold increase in extracellular AK activity)
  fold induction at 50 µM: 0.9
E. cloacae; planktonic E. cloacae, 50 μM final drug concentration, positive cutoff 3-fold increase, read-out: AK-based Prestwick library screening result, E. cloacae (fold increase in extracellular AK activity)
  fold induction at 50 µM: 1.2
K. pneumoniae; planktonic K. pneumoniae, 50 μM final drug concentration, positive cutoff 3-fold increase, read-out: AK-based Prestwick library screening result, K. pneumoniae (fold increase in extracellular AK activity)
  fold induction at 50 µM: 0.8
[2]; planktonic S. aureus, 50 μM final drug concentration, positive cutoff 3-fold increase, read-out: AK-based Prestwick library screening result, S. aureus (fold increase in extracellular AK activity)
  fold induction at 50 µM: 0.7

## COc1cc(N)c(Cl)cc1C(=O)NC1CCN(CCCOc2ccc(F)cc2)CC1OC (stereo not shown) [Cisapride]
[1]; planktonic A. baumannii, 50 μM final drug concentration, cutoff for positive-scoring molecules 3-fold increase, read-out: AK-based Prestwick Library Screening Results, A. baumannii (increase in extracellular AK activity)
  fold induction at 50 µM: 1.1
P. aeruginosa; planktonic P. aeruginosa, 50 μM final drug concentration, cutoff for positive-scoring molecules 3-fold increase, read-out: AK-based Prestwick Library Screening Results, P. aeruginosa (increase in extracellular AK activity)
  fold induction at 50 µM: 0.9
E. coli; planktonic E. coli, 50 μM final drug concentration, cutoff for positive-scoring molecules 3-fold increase, read-out: AK-based Prestwick Library Screening Results, E. coli (increase in extracellular AK activity)
  fold induction at 50 µM: 0.9
E. faecium; planktonic E. faecium, 50 μM final drug concentration, cutoff for positive-scoring molecules 3-fold increase, read-out: AK-based Prestwick Library Screening Results, E. faecium (increase in extracellular AK activity)
  fold induction at 50 µM: 0.9
E. cloacae; planktonic E. cloacae, 50 μM final drug concentration, cutoff for positive-scoring molecules 3-fold increase, read-out: AK-based Prestwick Library Screening Results, E. cloacae (increase in extracellular AK activity)
  fold induction at 50 µM: 0.9
K. pneumoniae; planktonic K. pneumoniae, 50 μM final drug concentration, cutoff for positive-scoring molecules 3-fold increase, read-out: AK-based Prestwick Library Screening Results, K. pneumoniae (increase in extracellular AK activity)
  fold induction at 50 µM: 0.7
[2]; planktonic S. aureus, 50 μM final drug concentration, cutoff for positive-scoring molecules 3-fold increase, read-out: AK-based Prestwick Library Screening Results, S. aureus (increase in extracellular AK activity)
  fold induction at 50 µM: 0.6

## CN(C)CCCC1(c2ccc(F)cc2)OCc2cc(C#N)ccc21 (stereo not shown) [Citalopram Hydrobromide]
[1]; [10]
  fold induction at 50 µM: 0.9
P. aeruginosa; [11]
  fold induction at 50 µM: 1.2
E. coli; [12]
  fold induction at 50 µM: 1
E. faecium; [13]
  fold induction at 50 µM: 1
E. cloacae; [14]
  fold induction at 50 µM: 1.5
K. pneumoniae; [15]
  fold induction at 50 µM: 0.9
[2]; [16]
  fold induction at 50 µM: 1

## COc1cc(N)c(Cl)cc1C(=O)NC1CCN(Cc2ccccc2)CC1 [Clebopride maleate]
[1]; [3]
  fold induction at 50 µM: 1
P. aeruginosa; [4]
  fold induction at 50 µM: 0.9
E. coli; [5]
  fold induction at 50 µM: 1
E. faecium; [6]
  fold induction at 50 µM: 1.1
E. cloacae; [7]
  fold induction at 50 µM: 1.6
K. pneumoniae; [8]
  fold induction at 50 µM: 1
[2]; [9]
  fold induction at 50 µM: 1.2

## Clc1ccc(Cn2c(CN3CCCC3)nc3ccccc32)cc1 [Clemizole hydrochloride]
[1]; [17]
  fold induction at 50 µM: 1.6
P. aeruginosa; [18]
  fold induction at 50 µM: 1.2
E. coli; [19]
  fold induction at 50 µM: 1.2
E. faecium; [20]
  fold induction at 50 µM: 1.2
E. cloacae; [21]
  fold induction at 50 µM: 1.4
K. pneumoniae; [22]
  fold induction at 50 µM: 1
[2]; [23]
  fold induction at 50 µM: 1.6

## CC(C)(C)NCC(O)c1cc(Cl)c(N)c(Cl)c1 (stereo not shown) [Clenbuterol hydrochloride]
[1]; planktonic A. baumannii, 50 μM final drug concentration, […], read-out: AK-based Prestwick Library Screening Results, A. baumannii (increase in extracellular AK activity)
  fold induction at 50 µM: 0.8
P. aeruginosa; planktonic P. aeruginosa, 50 μM final drug concentration, […], read-out: AK-based Prestwick Library Screening Results, P. aeruginosa (increase in extracellular AK activity)
  fold induction at 50 µM: 0.8
E. coli; planktonic E. coli, 50 μM final drug concentration, […], read-out: AK-based Prestwick Library Screening Results, E. coli (increase in extracellular AK activity)
  fold induction at 50 µM: 0.8
E. faecium; planktonic E. faecium, 50 μM final drug concentration, […], read-out: AK-based Prestwick Library Screening Results, E. faecium (increase in extracellular AK activity)
  fold induction at 50 µM: 0.9
E. cloacae; planktonic E. cloacae, 50 μM final drug concentration, […], read-out: AK-based Prestwick Library Screening Results, E. cloacae (increase in extracellular AK activity)
  fold induction at 50 µM: 0.9
K. pneumoniae; planktonic K. pneumoniae, 50 μM final drug concentration, […], read-out: AK-based Prestwick Library Screening Results, K. pneumoniae (increase in extracellular AK activity)
  fold induction at 50 µM: 0.7
[2]; planktonic S. aureus, 50 μM final drug concentration, […], read-out: AK-based Prestwick Library Screening Results, S. aureus (increase in extracellular AK activity)
  fold induction at 50 µM: 0.7

## C[N+]12CCC(CC1)C(OC(=O)C(O)(c1ccccc1)c1ccccc1)C2 (stereo not shown) [Clidinium bromide]
[1]; read-out: AK-based Prestwick Library Screening Results, A. baumannii (fold increase in extracellular AK activity)
  fold induction at 50 µM: 1.1
P. aeruginosa; read-out: AK-based Prestwick Library Screening Results, P. aeruginosa (fold increase in extracellular AK activity)
  fold induction at 50 µM: 1.1
E. coli; read-out: AK-based Prestwick Library Screening Results, E. coli (fold increase in extracellular AK activity)
  fold induction at 50 µM: 1
E. faecium; read-out: AK-based Prestwick Library Screening Results, E. faecium (fold increase in extracellular AK activity)
  fold induction at 50 µM: 0.9
E. cloacae; read-out: AK-based Prestwick Library Screening Results, E. cloacae (fold increase in extracellular AK activity)
  fold induction at 50 µM: 1.3
K. pneumoniae; read-out: AK-based Prestwick Library Screening Results, K. pneumoniae (fold increase in extracellular AK activity)
  fold induction at 50 µM: 0.8
[2]; read-out: AK-based Prestwick Library Screening Results, S. aureus (fold increase in extracellular AK activity)
  fold induction at 50 µM: 0.9

## CCC[C@@H]1C[C@@H](C(=O)N[C@@H]([C@H]2O[C@H](SC)[C@H](O)[C@@H](O)[C@H]2O)[C@H](C)Cl)N(C)C1 [Clindamycin hydrochloride]
[1]; [17]
  fold induction at 50 µM: 1
P. aeruginosa; [18]
  fold induction at 50 µM: 1.1
E. coli; [19]
  fold induction at 50 µM: 0.8
E. faecium; [20]
  fold induction at 50 µM: 1.2
E. cloacae; [21]
  fold induction at 50 µM: 1.7
K. pneumoniae; [22]
  fold induction at 50 µM: 0.5
[2]; [23]
  fold induction at 50 µM: 8.4
